In ChEMBL document CHEMBL4428063, “Novel Pyrimidine Toll-like Receptor 7 and 8 Dual Agonists to Treat Hepatitis B Virus” (J Med Chem, 2016):

target: T1, Toll-like receptor 7 (Homo sapiens) (UniProt Q9NYK1); assay: Agonist activity at human TLR7 expressed in HEK293 cells measured after 6 hrs by NF-kappaB luciferase reporter gene assay; type: cell-based
T1 sequence (whole entry): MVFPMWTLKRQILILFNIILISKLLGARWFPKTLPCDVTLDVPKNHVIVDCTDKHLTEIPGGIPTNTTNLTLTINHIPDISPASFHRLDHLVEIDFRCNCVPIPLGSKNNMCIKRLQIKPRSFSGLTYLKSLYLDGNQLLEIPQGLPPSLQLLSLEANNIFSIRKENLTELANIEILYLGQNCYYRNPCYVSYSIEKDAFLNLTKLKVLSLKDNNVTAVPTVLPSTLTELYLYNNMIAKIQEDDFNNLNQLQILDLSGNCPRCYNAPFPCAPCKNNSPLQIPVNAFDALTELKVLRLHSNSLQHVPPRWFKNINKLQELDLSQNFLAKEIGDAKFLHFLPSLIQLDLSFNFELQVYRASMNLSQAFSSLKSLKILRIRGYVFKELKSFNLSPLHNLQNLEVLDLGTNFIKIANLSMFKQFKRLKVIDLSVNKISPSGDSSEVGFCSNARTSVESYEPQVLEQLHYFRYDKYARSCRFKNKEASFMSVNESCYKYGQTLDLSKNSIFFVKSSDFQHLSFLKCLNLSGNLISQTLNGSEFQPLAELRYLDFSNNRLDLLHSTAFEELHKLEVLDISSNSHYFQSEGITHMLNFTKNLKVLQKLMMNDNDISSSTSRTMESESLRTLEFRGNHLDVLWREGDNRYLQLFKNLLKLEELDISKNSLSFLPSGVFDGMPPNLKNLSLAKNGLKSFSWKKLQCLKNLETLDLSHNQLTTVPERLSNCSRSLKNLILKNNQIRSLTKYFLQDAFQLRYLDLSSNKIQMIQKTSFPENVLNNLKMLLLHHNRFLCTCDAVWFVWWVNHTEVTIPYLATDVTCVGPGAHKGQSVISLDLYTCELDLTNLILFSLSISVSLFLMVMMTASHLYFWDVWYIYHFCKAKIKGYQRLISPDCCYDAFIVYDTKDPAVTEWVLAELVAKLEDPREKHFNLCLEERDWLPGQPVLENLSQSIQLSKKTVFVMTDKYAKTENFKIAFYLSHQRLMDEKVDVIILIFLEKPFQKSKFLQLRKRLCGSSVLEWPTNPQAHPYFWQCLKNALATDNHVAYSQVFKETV

SMILES	LED
COc1cnc(N)nc1NCCCC(F)(F)F	6.5 µM
CC[C@H](C)CNc1nc(N)ncc1OC	> 25 µM
CCCC(C)Nc1nc(N)ncc1OC (racemic)	> 25 µM
CCCCNc1nc(N)ncc1OCCC	6.2 µM
CCCCNc1nc(N)nc(C)c1OCc1ccccc1	18 µM
C=CCNc1nc(N)ncc1OC	> 25 µM
CCC[C@@H](CO)Nc1nc(N)ncc1OC	8.4 µM
CCCC[C@@H](CO)Nc1nc(N)ncc1OC	8.01 µM
CCCCCNc1nc(N)ncc1OCC	6 µM
CC[C@H](C)[C@@H](CO)Nc1nc(N)ncc1OC	17.8 µM
CCC[C@@H](CCO)Nc1nc(N)ncc1OC	7.3 µM
COc1cnc(N)nc1N[C@H](CO)CC(C)C	> 25 µM
COc1cnc(N)nc1NCCC1CC1	> 25 µM
CCCCNc1nc(N)ncc1OCc1c(C)noc1C	3.1 µM
COc1cnc(N)nc1N[C@H](CCO)CC(C)C	10.8 µM
CCCCNc1nc(N)ncc1OC(C)C	10 µM
CCC[C@H](CO)Nc1nc(N)ncc1OC	> 25 µM
CCC(C)[C@H](CCO)Nc1nc(N)ncc1OC (some centres undefined)	10.4 µM

The remaining lines, values ahead:

LED	SMILES
0.3 µM	CCCCNc1nc(N)ncc1OCc1ccc2ccccc2n1
0.21 µM	CCCCNc1nc(N)ncc1OCc1cc2ccccn2n1
0.13 µM	CCCCNc1nc(N)ncc1OCc1nccc(OC)c1OC
0.29 µM	CCCCNc1nc(N)ncc1OCc1csc(C)n1
1.5 µM	CCCCNc1nc(N)ncc1OCCCc1ccccc1
0.032 µM	CCCCNc1nc(N)ncc1OCc1nc2ccccc2[nH]1
0.7 µM	CCCCNc1nc(N)ncc1OCc1cc(C)nn1C
0.008 µM	CCCCNc1nc(N)ncc1OCc1nccc2ccccc12
4.7 µM	CCCCNc1nc(N)ncc1OCC
7 µM	CCCCNc1nc(N)ncc1OCc1cnn(C)c1
0.014 µM	CCCCNc1nc(N)ncc1OCc1nn(C)c2ccccc12
0.51 µM	CCCCNc1nc(N)ncc1OCc1cnccn1
2.87 µM	CCCCNc1nc(N)ncc1OCc1ncco1
0.9 µM	CCCCNc1nc(N)ncc1OCc1ccccc1
0.28 µM	CCCCNc1nc(N)ncc1OCc1nc2ccccc2s1
0.52 µM	CCCCNc1nc(N)ncc1OCc1cccnn1
0.46 µM	CCCCNc1nc(N)ncc1OCc1nc(C)oc1C

target: T1, Toll-like receptor 7 (Homo sapiens); assay: Activation of TLR7 in human PBMCs incubated for overnight duration followed by compound-treated cell supernatant conditioned media transfer to HCV1b transfected human HuH7-luc/neo replicon cells assessed as induction of INFalpha-mediated suppression of virus growth by firefly-luciferase reporter gene assay

SMILES	LED
COc1cnc(N)nc1NCCCC(F)(F)F	1.6 µM
CC[C@H](C)CNc1nc(N)ncc1OC	> 24 µM
CCCC(C)Nc1nc(N)ncc1OC (racemic)	1.7 µM
CCCCNc1nc(N)ncc1OCCC	4.8 µM
C=CCNc1nc(N)ncc1OC	6.2 µM
CCC[C@@H](CO)Nc1nc(N)ncc1OC	0.4 µM
CCCC[C@@H](CO)Nc1nc(N)ncc1OC	0.4 µM
CC[C@H](C)[C@@H](CO)Nc1nc(N)ncc1OC	1.7 µM
CCC[C@@H](CCO)Nc1nc(N)ncc1OC	0.8 µM
COc1cnc(N)nc1N[C@H](CO)CC(C)C	11 µM
COc1cnc(N)nc1NCCC1CC1	6.8 µM
CCCCNc1nc(N)ncc1OCc1c(C)noc1C	0.38 µM
COc1cnc(N)nc1N[C@H](CCO)CC(C)C	7.5 µM
CCCCNc1nc(N)ncc1OC(C)C	0.5 µM
CCC(C)[C@H](CCO)Nc1nc(N)ncc1OC (some centres undefined)	2.2 µM

Second part, the molecule after the results:

LED	SMILES
0.09 µM	CCCCNc1nc(N)ncc1OCc1ccc2ccccc2n1
0.037 µM	CCCCNc1nc(N)ncc1OCc1cc2ccccn2n1
0.022 µM	CCCCNc1nc(N)ncc1OCc1nccc(OC)c1OC
0.07 µM	CCCCNc1nc(N)ncc1OCc1csc(C)n1
0.25 µM	CCCCNc1nc(N)ncc1OCCCc1ccccc1
0.012 µM	CCCCNc1nc(N)ncc1OCc1nc2ccccc2[nH]1
0.39 µM	CCCCNc1nc(N)ncc1OCc1cc(C)nn1C
0.003 µM	CCCCNc1nc(N)ncc1OCc1nccc2ccccc12
0.011 µM	CCCCNc1nc(N)ncc1OCc1nn(C)c2ccccc12
0.16 µM	CCCCNc1nc(N)ncc1OCc1cnccn1
0.39 µM	CCCCNc1nc(N)ncc1OCc1ccccc1
0.11 µM	CCCCNc1nc(N)ncc1OCc1nc2ccccc2s1
0.12 µM	CCCCNc1nc(N)ncc1OCc1cccnn1

target: T2, Toll-like receptor 8 (Homo sapiens) (UniProt Q9NR97); assay: Agonist activity at human TLR8 expressed in HEK293 cells assessed as measured after 6 hrs by NF-kappaB luciferase reporter gene assay; type: cell-based
T2 sequence (whole entry): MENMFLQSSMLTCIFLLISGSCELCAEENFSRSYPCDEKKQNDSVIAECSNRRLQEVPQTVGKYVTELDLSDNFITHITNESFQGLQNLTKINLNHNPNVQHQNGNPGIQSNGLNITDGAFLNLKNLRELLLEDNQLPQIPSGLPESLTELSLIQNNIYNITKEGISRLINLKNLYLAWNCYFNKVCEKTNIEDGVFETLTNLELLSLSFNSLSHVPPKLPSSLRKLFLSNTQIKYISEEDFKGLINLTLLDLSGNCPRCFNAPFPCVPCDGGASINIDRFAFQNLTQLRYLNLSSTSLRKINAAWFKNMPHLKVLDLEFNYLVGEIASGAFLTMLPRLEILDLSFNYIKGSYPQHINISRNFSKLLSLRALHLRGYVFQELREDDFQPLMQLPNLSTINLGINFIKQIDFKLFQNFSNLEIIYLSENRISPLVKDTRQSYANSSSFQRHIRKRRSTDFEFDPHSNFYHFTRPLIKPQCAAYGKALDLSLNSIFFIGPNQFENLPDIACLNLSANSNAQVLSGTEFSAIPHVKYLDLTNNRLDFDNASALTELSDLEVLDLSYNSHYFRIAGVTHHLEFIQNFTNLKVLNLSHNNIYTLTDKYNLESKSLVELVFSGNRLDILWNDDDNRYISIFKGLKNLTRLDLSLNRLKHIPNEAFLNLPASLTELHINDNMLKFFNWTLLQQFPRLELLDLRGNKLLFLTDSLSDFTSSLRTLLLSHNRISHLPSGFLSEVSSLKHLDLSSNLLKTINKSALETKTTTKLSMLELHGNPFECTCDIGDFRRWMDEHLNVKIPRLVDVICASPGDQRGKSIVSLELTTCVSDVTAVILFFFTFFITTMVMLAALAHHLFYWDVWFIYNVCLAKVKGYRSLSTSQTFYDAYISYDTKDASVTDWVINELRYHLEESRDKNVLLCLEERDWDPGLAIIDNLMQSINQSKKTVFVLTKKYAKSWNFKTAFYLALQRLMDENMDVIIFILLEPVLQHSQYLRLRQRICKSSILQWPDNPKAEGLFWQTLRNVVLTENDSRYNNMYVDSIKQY

SMILES	LED
COc1cnc(N)nc1NCCCC(F)(F)F	6.6 µM
CC[C@H](C)CNc1nc(N)ncc1OC	> 25 µM
CCCC(C)Nc1nc(N)ncc1OC (racemic)	2.8 µM
CCCCNc1nc(N)ncc1OCCC	4.5 µM
CCCCNc1nc(N)nc(C)c1OCc1ccccc1	7.5 µM
C=CCNc1nc(N)ncc1OC	8.5 µM
CCC[C@@H](CO)Nc1nc(N)ncc1OC	0.25 µM
CCCC[C@@H](CO)Nc1nc(N)ncc1OC	0.39 µM
CCCCCNc1nc(N)ncc1OCC	3.2 µM
CC[C@H](C)[C@@H](CO)Nc1nc(N)ncc1OC	0.66 µM
CCC[C@@H](CCO)Nc1nc(N)ncc1OC	1.4 µM
COc1cnc(N)nc1N[C@H](CO)CC(C)C	16 µM
COc1cnc(N)nc1NCCC1CC1	20.9 µM
CCCCNc1nc(N)ncc1OCc1c(C)noc1C	1 µM
COc1cnc(N)nc1N[C@H](CCO)CC(C)C	2.3 µM
CCCCNc1nc(N)ncc1OC(C)C	0.7 µM
CCC[C@H](CO)Nc1nc(N)ncc1OC	9 µM
CCC(C)[C@H](CCO)Nc1nc(N)ncc1OC (some centres undefined)	2.6 µM

Next, values leading:

LED	SMILES
0.89 µM	CCCCNc1nc(N)ncc1OCc1ccc2ccccc2n1
1.3 µM	CCCCNc1nc(N)ncc1OCc1cc2ccccn2n1
0.6 µM	CCCCNc1nc(N)ncc1OCc1nccc(OC)c1OC
0.74 µM	CCCCNc1nc(N)ncc1OCc1csc(C)n1
7.9 µM	CCCCNc1nc(N)ncc1OCCCc1ccccc1
0.65 µM	CCCCNc1nc(N)ncc1OCc1nc2ccccc2[nH]1
0.92 µM	CCCCNc1nc(N)ncc1OCc1cc(C)nn1C
0.14 µM	CCCCNc1nc(N)ncc1OCc1nccc2ccccc12
1.1 µM	CCCCNc1nc(N)ncc1OCC
13.7 µM	CCCCNc1nc(N)ncc1OCc1cnn(C)c1
0.18 µM	CCCCNc1nc(N)ncc1OCc1nn(C)c2ccccc12
2.28 µM	CCCCNc1nc(N)ncc1OCc1cnccn1
3.6 µM	CCCCNc1nc(N)ncc1OCc1ncco1
2.4 µM	CCCCNc1nc(N)ncc1OCc1ccccc1
2.6 µM	CCCCNc1nc(N)ncc1OCc1nc2ccccc2s1
0.83 µM	CCCCNc1nc(N)ncc1OCc1cccnn1
1.58 µM	CCCCNc1nc(N)ncc1OCc1nc(C)oc1C

system: HEK293; assay: Agonist activity at human TLR7-dLRR2 mutant expressed in HEK293 cells measured after 6 hrs by NF-kappaB luciferase reporter gene assay; type: cell-based

SMILES	LED
CCCCNc1nc(N)ncc1OCC	1.6 µM
